Assay results from patent US9145419B2, “Imidazopyridazinyl compounds” (Bristol-Myers Squibb Company, priority 2010, dated 2015).

The compounds below were run on testosterone levels (assay: 1-Day Cyno PK/PD study). Settings: cynomolgus monkeys, single oral dose 3 mg/Kg in 80% PEG-400/water, plasma, over 24 hour period.
Type: in vivo
Description: 1-Day Cyno PK/PD Study Protocol
Animals: All procedures involving animals and their care were conducted in conformity with the guidelines that are in compliance with the Bristol-Myers Squibb Institutional Animal Care and Use Committee. Fully mature male cynomolgus monkeys (>4 yrs of age; 5-6 kg) were from an in-house colony. All the monkeys used had chronically implanted femoral vein access ports. For oral studies, all animals were fasted overnight prior to dosing and were fed 4 hr after dosing. All animals had free access to water and were conscious throughout the study.
Drug: For all oral pharmacokinetic studies in cynomolgus monkeys, the tested compound was formulated in polyethylene glycol (PEG 400): water (80:20, v:v) at concentrations of 1-5 mg/mL. […]
Sampling: Blood samples were collected from the femoral port, at 15, 30, and 45 min, and 1, 2, 4, 6, 8, 12, 24, 30, and 48 hr after oral administration. […] The plasma fraction was immediately separated by centrifugation (14,000 rpm, 10 min, 4° C.), frozen on dry ice, and stored at −20° C. until the samples were analyzed.
Analysis of Tested Compound: Plasma samples were thawed and treated with two volumes of acetonitrile containing internal standard. After centrifugation to remove precipitated proteins, an aliquot of supernatant was analyzed by LC/MS/MS. […]

Row | SMILES | testosterone levels
1 | Cc1ccncc1-c1ccnn2c(-c3ccc(F)cc3)cnc12 [Example 7, 3-(4-fluorophenyl)-8-(4-methylpyridin-3-yl)imidazo[1,2-b]pyridazine] | ~15 ng/dL

What follows are compounds tested against Human CYP17 (Homo sapiens (Human), UniProt P05093) (assay: CYP17 Total SPA assay). Settings: microsomes from HEK2 cells stably transfected with CYP17; 3H-Pregnenolone 1 uM, NADPH 2 mM.
Type: biochemical
Description: The assays were performed in U-bottom 384-well optiplates. The final assay volume was 15 μl prepared from 7.5 μl additions of microsomes (prepared as a high-speed pellet from homogenized HEK2 cells stably transfected with CYP17), substrates (3H-Pregnenolone and NADPH) and test compounds in assay buffer (50 mM Potassium phosphate pH 7.2, 10% glycerol). The reaction was initiated by the combination of the microsomes and substrates in wells containing compound. The reaction was incubated at room temperature for 45 minutes and terminated by adding 7.5 μl of 0.2N HCl to each well. Following an incubation period of 10 minutes, anti-DHEA-coated SPA beads were added to the terminated reaction. The plate was sealed and incubated overnight with shaking at 4° C. The beads were allowed to settle in the plate for 1 hour and the plate read on a TOPCOUNT® (Perkin-Elmer) plate reader.
Inhibition data were calculated by comparison to no enzyme control reactions for 100% inhibition and vehicle-only reactions for 0% inhibition. The final concentration of reagents in the assays are NADPH, 2 mM; 3H-Pregnenolone, 1 uM; microsomes, 1.25 ug/ml; Anti-DHEA-SPA beads (0.125 mg/well) in 0.5% Triton X-100 and DMSO, 0.05%. Dose response curves were generated to determine the concentration required inhibiting 50% of enzyme activity (IC50). Compounds were dissolved at 10 mM in dimethylsulfoxide (DMSO) and evaluated at eleven concentrations, each in duplicate. IC50 values were derived by non-linear regression analysis.

Human CYP17, sequence (P05093 whole entry): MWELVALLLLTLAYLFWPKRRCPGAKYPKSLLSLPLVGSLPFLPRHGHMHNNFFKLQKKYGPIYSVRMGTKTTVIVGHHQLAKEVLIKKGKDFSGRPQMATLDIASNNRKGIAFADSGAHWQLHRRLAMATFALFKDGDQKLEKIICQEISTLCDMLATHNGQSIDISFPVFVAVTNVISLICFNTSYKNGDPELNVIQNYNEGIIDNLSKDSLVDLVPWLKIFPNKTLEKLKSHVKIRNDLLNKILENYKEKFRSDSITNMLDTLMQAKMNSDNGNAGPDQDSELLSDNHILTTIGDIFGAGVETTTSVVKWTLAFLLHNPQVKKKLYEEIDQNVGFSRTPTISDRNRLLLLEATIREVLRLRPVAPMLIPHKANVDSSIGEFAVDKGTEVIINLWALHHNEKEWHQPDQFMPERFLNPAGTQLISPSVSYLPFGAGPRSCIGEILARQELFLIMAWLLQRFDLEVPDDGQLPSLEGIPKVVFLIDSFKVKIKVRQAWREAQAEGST

Row | SMILES | IC50
2 | Fc1ccc(-c2cnc3c(-c4cccnc4)ccnn23)cc1 [Example 26, 3-(4-fluorophenyl)-8-(pyridin-3-yl)imidazo[1,2-b]pyridazine] | 524 nM
3 | Cc1ccncc1-c1ccnn2c(-c3cc(Cl)cc(Cl)c3)cnc12 [Example 34, 3-(3,5-dichlorophenyl)-8-(4-methylpyridin-3-yl)imidazo[1,2-b]pyridazine] | 664 nM
4 | Cc1ccncc1-c1ccnn2c(-c3cccs3)cnc12 [Example 35, 8-(4-methylpyridin-3-yl)-3-(thiophen-2-yl)imidazo[1,2-b]pyridazine] | 9 nM
5 | Cc1ccncc1-c1ccnn2c(-c3cccc(C(F)(F)F)c3)cnc12 [Example 37, 8-(4-methylpyridin-3-yl)-3-(3-(trifluoromethyl)phenyl)imidazo[1,2-b]pyridazine] | 129 nM
6 | Cc1cc(C)cc(-c2cnc3c(-c4cnccc4C)ccnn23)c1 [Example 38, 3-(3,5-dimethylphenyl)-8-(4-methylpyridin-3-yl)imidazo[1,2-b]pyridazine] | 279 nM

The remaining lines, values ahead:

Row | IC50 | SMILES
7 | 41 nM | Cc1ccncc1-c1ccnn2c(-c3ccccc3)cnc12 [Example 1, 8-(4-Methylpyridin-3-yl)-3-phenylimidazo[1,2-b]pyridazine]
8 | 16 nM | COc1ccccc1-c1cnc2c(-c3cnccc3C)ccnn12 [Example 3, 3-(2-Methoxyphenyl)-8-(4-methylpyridin-3-yl)imidazo[1,2-b]pyridazine]
9 | 56 nM | Cc1ccncc1-c1ccnn2c(-c3ccc(F)cc3)cnc12 [Example 7, 3-(4-fluorophenyl)-8-(4-methylpyridin-3-yl)imidazo[1,2-b]pyridazine]
10 | 120 nM | Cc1cccc(-c2cnc3c(-c4cnccc4C)ccnn23)c1 [Example 9, 8-(4-methylpyridin-3-yl)-3-m-tolylimidazo[1,2-b]pyridazine]
11 | 97 nM | Cc1ccncc1-c1ccnn2c(-c3cccc(Cl)c3)cnc12 [Example 11, 3-(3-chlorophenyl)-8-(4-methylpyridin-3-yl)imidazo[1,2-b]pyridazine]
